Test results published in paper PMC4448990 (Pharmacology Research & Perspectives, 2015).
Like-named read-outs stand apart in the source and are kept apart here. Marks after values point to notes of the source that are not given here.

Columns and labels:
[1] = human plasma and CSF pharmacokinetics; type: in vivo; settings: LCM 600 mg twice daily, protein binding ∼15%
[2] = test system: sodium channels endogenously expressed in N1E-115 mouse neuroblastoma cells; settings: 250 μmol/L; ref Hebeisen et al. [2014]; cited from earlier work
[3] = ref Doty et al. [2007]; cited from earlier work
[4] = target: human Nav1.3 sodium channels (Homo sapiens, UniProt Q9NY46); assay: whole-cell patch clamp, Nav1.3 in CHO-K1 cells; type: cell-based; settings: 250 μmol/L; for Fast inactivation V0.5 / Slow inactivation V0.5: n = 3–6; for time constant for entering the slow inactivated state: control 20.29 sec
[5] = ref Nunes et al. [2013], cited from earlier work
[6] = target: T1, human GlyRα3 glycine receptors (Homo sapiens, UniProt O75311); assay: submaximal glycine currents in CHO cells; type: cell-based
T1 sequence (O75311 34-464): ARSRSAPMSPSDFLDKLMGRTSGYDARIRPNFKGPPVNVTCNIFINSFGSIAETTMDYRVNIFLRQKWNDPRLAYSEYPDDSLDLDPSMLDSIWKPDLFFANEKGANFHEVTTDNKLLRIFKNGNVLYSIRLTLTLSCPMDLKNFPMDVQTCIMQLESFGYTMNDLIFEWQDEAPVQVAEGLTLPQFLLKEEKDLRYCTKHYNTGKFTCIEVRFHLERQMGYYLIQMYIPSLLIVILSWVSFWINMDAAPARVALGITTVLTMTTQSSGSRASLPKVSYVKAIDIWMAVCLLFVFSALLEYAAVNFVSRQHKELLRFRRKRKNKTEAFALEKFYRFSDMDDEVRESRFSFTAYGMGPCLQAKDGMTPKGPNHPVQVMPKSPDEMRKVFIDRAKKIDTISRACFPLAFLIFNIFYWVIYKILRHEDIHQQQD

[7] = target: human GRIN1/GRIN2B NMDA receptor (Homo sapiens, UniProt Q05586+Q13224); assay: submaximal NMDA-receptor-mediated currents in HEK cells; type: cell-based
[8] = target: human α5β2γ2 GABAA receptors (Homo sapiens, UniProt P18507+P31644+P47870); assay: submaximal GABA currents in Ltk cells; type: cell-based
[9] = test system: Racine stage 5 seizures; assay: proconvulsant effects; type: in vivo
[10] = target: hKv7.2 potassium channels (Homo sapiens, UniProt O43526); assay: whole-cell patch clamp, hKv7.2 in CHO cells; type: cell-based
[11] = test system: kindling epileptogenesis; assay: bilateral corneal kindling; type: in vivo, mouse; settings: Table 5 summary; values are ED50 (mg/kg)
[12] = target: human α1β2γ2 GABAA receptors (Homo sapiens, UniProt P14867+P18507+P47870); assay: submaximal GABA currents in Ltk cells; type: cell-based
[13] = target: human GRIA1 receptor (Homo sapiens, UniProt P42261); assay: AMPA-receptor-mediated currents in CHO cells; type: cell-based
[14] = target: human α3β2γ2 GABAA receptors (Homo sapiens, UniProt P18507+P34903+P47870); assay: submaximal GABA currents in Ltk cells; type: cell-based
[15] = target: human α2β2γ2 GABAA receptors (Homo sapiens, UniProt P18507+P47869+P47870); assay: submaximal GABA currents in Ltk cells; type: cell-based
[16] = target: hCav2.1 calcium channels (Homo sapiens, UniProt O00555); assay: whole-cell patch clamp, hCav2.1 in CHO cells; type: cell-based; settings: IC50, hCav2.1 calcium peak currents, 0.3–1000 μmol/L, holding potential −80 mV
[17] = test system: transient Na+ current (INaT); settings: ref Döser et al. [2013b], [2015]; cited from earlier work
[18] = test system: MES-induced seizures; settings: mouse, ESL 50 mg/kg p.o.; ref Pires et al. [2011]; cited from earlier work
[19] = test system: latrunculin A-induced seizures; settings: ESL 100 mg/kg oral, ref Sierra-Paredes et al. [2011], 2014, cited from earlier work

human Nav1.3 sodium channels, sequence (Q9NY46 whole entry): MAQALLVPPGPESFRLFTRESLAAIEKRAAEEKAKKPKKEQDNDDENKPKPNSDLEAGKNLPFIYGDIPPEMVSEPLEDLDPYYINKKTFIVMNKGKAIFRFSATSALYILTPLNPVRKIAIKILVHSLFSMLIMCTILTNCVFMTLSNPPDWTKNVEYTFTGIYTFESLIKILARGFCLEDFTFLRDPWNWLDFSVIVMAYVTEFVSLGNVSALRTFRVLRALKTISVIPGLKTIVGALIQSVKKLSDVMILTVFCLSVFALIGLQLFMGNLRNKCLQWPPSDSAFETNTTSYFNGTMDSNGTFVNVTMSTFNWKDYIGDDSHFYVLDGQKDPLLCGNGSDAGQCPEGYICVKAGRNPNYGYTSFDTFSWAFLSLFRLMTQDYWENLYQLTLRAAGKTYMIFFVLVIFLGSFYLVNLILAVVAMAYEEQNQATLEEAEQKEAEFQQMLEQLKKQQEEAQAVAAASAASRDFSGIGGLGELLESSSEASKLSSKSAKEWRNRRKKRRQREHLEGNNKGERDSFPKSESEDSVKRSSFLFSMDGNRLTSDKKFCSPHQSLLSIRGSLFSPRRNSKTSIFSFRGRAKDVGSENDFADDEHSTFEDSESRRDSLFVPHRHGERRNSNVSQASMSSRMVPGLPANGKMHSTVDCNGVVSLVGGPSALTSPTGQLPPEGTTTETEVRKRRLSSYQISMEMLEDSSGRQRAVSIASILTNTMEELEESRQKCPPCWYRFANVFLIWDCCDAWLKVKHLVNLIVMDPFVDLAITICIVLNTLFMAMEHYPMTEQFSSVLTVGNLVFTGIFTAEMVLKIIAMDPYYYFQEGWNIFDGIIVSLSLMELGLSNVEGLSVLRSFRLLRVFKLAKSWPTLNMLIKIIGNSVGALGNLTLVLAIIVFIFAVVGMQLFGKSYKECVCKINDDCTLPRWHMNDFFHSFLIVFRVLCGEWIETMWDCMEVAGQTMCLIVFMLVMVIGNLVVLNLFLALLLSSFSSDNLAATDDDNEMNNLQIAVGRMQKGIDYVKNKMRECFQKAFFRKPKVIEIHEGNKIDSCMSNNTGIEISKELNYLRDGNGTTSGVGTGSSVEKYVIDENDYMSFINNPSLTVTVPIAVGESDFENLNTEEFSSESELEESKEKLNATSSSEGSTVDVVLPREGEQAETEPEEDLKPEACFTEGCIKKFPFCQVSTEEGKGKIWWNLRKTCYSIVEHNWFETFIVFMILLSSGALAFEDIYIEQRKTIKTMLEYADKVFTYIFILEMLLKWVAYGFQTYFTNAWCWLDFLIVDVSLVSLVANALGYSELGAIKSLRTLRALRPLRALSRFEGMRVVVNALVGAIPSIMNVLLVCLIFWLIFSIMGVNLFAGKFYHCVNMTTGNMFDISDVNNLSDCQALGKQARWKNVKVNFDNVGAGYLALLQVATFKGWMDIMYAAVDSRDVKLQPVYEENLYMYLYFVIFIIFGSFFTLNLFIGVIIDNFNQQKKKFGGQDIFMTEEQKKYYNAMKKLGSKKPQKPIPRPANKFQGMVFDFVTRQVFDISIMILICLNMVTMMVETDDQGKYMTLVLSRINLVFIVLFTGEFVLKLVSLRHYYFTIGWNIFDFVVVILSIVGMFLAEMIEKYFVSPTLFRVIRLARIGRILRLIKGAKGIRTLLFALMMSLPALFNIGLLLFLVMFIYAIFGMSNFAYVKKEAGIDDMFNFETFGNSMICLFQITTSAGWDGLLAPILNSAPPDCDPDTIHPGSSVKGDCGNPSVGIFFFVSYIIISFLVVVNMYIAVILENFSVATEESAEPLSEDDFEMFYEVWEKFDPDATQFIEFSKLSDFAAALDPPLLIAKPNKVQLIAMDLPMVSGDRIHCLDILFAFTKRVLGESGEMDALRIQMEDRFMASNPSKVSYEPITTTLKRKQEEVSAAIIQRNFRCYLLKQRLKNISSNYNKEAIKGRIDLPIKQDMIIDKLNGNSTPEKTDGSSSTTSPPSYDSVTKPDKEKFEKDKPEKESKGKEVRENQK
human α3β2γ2 GABAA receptors, sequence (P34903 29-492): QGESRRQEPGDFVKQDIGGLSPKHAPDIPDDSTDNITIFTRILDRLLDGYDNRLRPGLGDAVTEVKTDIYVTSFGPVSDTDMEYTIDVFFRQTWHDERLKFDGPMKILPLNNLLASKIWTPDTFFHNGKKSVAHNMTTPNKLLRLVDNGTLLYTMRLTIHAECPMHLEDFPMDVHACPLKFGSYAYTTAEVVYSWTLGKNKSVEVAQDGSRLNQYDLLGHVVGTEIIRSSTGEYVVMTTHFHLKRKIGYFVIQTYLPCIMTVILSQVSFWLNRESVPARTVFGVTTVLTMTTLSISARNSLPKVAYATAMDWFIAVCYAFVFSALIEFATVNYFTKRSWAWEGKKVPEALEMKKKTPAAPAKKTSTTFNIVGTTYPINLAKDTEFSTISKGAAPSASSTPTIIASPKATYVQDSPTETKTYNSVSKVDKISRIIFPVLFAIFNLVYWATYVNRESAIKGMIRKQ
human α3β2γ2 GABAA receptors, sequence (P47870 25-512 limits assumed): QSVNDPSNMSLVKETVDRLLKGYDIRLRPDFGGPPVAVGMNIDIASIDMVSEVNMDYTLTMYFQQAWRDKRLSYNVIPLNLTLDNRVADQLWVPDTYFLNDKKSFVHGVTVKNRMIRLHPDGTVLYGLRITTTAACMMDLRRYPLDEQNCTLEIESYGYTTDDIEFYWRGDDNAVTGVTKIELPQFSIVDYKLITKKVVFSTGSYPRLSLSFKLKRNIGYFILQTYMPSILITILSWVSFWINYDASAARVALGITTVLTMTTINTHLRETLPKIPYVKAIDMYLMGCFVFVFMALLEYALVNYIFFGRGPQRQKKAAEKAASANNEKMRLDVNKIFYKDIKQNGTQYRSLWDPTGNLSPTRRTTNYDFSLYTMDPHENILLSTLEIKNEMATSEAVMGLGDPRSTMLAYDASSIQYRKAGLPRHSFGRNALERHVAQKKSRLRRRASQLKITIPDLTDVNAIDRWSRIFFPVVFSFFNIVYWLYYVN
human α3β2γ2 GABAA receptors, sequence (P18507 40-475): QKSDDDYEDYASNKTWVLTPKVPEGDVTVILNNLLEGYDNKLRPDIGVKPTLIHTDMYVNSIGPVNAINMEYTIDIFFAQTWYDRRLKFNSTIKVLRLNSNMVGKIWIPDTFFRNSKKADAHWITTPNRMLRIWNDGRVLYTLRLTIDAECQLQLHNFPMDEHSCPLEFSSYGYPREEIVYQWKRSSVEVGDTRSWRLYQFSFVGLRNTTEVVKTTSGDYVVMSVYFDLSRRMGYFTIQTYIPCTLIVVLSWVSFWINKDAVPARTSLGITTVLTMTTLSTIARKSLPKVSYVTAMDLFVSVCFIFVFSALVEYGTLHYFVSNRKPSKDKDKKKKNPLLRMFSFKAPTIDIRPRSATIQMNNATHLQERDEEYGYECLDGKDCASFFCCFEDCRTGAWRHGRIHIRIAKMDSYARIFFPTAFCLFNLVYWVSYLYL
human α5β2γ2 GABAA receptors, sequence (P31644 32-462): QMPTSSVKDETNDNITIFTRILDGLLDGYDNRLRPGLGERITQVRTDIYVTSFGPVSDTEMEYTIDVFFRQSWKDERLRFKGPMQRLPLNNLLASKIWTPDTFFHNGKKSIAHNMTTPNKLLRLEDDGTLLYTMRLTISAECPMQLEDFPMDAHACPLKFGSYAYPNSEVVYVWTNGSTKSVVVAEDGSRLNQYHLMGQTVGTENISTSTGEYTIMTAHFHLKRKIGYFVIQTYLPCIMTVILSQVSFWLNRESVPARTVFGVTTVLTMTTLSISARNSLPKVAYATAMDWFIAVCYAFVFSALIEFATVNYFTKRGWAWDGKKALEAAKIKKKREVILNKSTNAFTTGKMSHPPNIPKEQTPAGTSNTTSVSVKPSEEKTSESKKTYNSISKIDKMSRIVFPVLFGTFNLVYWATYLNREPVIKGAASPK
human α5β2γ2 GABAA receptors, sequence (P47870 25-512 limits assumed): as the sequence (P47870 25-512 limits assumed) above
human α5β2γ2 GABAA receptors, sequence (P18507 40-475): as the sequence (P18507 40-475) above
human α2β2γ2 GABAA receptors, sequence (P47869 29-451): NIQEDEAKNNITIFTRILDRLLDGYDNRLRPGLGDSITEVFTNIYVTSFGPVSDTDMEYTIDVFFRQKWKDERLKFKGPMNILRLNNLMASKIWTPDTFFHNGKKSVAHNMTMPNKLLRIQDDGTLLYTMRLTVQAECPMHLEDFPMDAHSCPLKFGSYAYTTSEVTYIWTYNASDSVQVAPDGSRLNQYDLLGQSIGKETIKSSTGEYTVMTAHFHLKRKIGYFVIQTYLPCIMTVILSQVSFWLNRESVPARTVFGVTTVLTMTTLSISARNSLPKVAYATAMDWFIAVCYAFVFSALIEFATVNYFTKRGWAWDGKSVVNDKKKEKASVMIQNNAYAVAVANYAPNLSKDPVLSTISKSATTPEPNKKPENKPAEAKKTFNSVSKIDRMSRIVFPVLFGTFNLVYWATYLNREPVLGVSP
human α2β2γ2 GABAA receptors, sequence (P47870 25-512 limits assumed): as the sequence (P47870 25-512 limits assumed) above
human α2β2γ2 GABAA receptors, sequence (P18507 40-475): as the sequence (P18507 40-475) above
human α1β2γ2 GABAA receptors, sequence (P14867 28-456): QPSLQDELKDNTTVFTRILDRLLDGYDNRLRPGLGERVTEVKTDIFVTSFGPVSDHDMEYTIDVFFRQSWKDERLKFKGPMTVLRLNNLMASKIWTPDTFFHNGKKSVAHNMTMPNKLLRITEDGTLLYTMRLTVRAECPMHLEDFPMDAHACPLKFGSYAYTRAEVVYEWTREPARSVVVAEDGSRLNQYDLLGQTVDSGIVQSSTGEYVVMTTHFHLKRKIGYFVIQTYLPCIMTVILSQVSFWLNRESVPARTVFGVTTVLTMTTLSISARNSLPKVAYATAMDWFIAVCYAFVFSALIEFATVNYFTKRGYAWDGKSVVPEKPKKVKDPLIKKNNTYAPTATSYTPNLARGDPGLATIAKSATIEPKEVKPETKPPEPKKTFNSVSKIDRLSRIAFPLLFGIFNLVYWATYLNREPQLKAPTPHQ
human α1β2γ2 GABAA receptors, sequence (P47870 25-512 limits assumed): as the sequence (P47870 25-512 limits assumed) above
human α1β2γ2 GABAA receptors, sequence (P18507 40-475): as the sequence (P18507 40-475) above

COC[C@@H](NC(C)=O)C(=O)NCc1ccccc1 [LCM, lacosamide]
LCM-free drug, peak plasma [1]: 49 µmol/L | recovery of fast inactivated channels [2]: recovered similar to control conditions | LCM protein binding [3]: ~15% | Fast inactivation V0.5 ([4]; mean ± SEM): −53.54 ± 3.95 mV | Slow inactivation V0.5 ([4]; mean ± SEM): −37.04 ± 2.72 mV | time constant for entering the slow inactivated state [4]: 10.91 s

NC(=O)N1c2ccccc2CC(=O)c2ccccc21 [OXC, oxcarbazepine]
recovery of fast inactivated channels [2]: required longer pulses to recover | Fast inactivation V0.5 ([4]; mean ± SEM): −55.95 ± 2.91 mV | Slow inactivation V0.5 ([4]; mean ± SEM): −19.47 ± 4.55 mV | time constant for entering the slow inactivated state [4]: not affected | CSF Cmax of nonmetabolized OXC ([5]; ESL 1200 mg QD): 380 nM | CSF Cmax of nonmetabolized OXC ([5]; OXC 600 mg BID): 1820 nM

O=C1C[C@@H]2OCC=C3CN4CC[C@]56c7ccccc7N1[C@H]5[C@H]2[C@H]3C[C@H]46 [Strychnine]
IC50 [6]: 0.052 µM

NC(=O)N1c2ccccc2C=Cc2ccccc21 [CBZ, carbamazepine]
IC50 [7]: 214 µM | GABA inward current stimulation, α5β2γ2, Mean ± SEM ([8]; 50 μmol/L): 103.8 ± 1.5 | GABA inward current stimulation, α5β2γ2, Mean ± SEM ([8]; 100 μmol/L): 103.8 ± 4.5 | GABA inward current stimulation, α5β2γ2, Mean ± SEM ([8]; 250 μmol/L): 93.6 ± 4.3 | GABA inward current stimulation, α5β2γ2, Mean ± SEM ([8]; 500 μmol/L): 80.7 ± 5.9 | GABA inward current stimulation, α5β2γ2, Mean ± SEM ([8]; 1000 μmol/L): 63.0 ± 4.5 | Racine stage 5 seizures (proconvulsant effects) ([9]; at 45 mg/kg): 80% ^** | IC50 [10]: 572 µM | recovery of fast inactivated channels [2]: required longer pulses to recover | Corneal kindling (antiepileptogenic models) [11]: 140 mg/kg | GABA inward current stimulation, α1β2γ2, Mean ± SEM ([12]; 50 μmol/L): 104.3 ± 5.0 | GABA inward current stimulation, α1β2γ2, Mean ± SEM ([12]; 100 μmol/L): 117.4 ± 4.9 | GABA inward current stimulation, α1β2γ2, Mean ± SEM ([12]; 250 μmol/L): 115.7 ± 5.3 | GABA inward current stimulation, α1β2γ2, Mean ± SEM ([12]; 500 μmol/L): 132.4 ± 5.3 | GABA inward current stimulation, α1β2γ2, Mean ± SEM ([12]; 1000 μmol/L): 150.3 ± 15.5 | increase of submaximal α1β2γ2 GABA currents ([12]; 1000 μmol/L): 50% | IC50, AMPA currents ([13]; CHO cells, human GRIA1): neither eslicarbazepine nor CBZ significantly changed AMPA currents | GABA inward current stimulation, α3β2γ2, Mean ± SEM ([14]; 50 μmol/L): 93.3 ± 4.1 | GABA inward current stimulation, α3β2γ2, Mean ± SEM ([14]; 100 μmol/L): 112.8 ± 5.4 | GABA inward current stimulation, α3β2γ2, Mean ± SEM ([14]; 250 μmol/L): 131.1 ± 9.4 | GABA inward current stimulation, α3β2γ2, Mean ± SEM ([14]; 500 μmol/L): 120.3 ± 11.8 | GABA inward current stimulation, α3β2γ2, Mean ± SEM ([14]; 1000 μmol/L): 166.7 ± 21.0 | increase of submaximal α3β2γ2 GABA currents ([14]; 1000 μmol/L): 66% | Fast inactivation V0.5 ([4]; mean ± SEM): −72.33 ± 5.04 mV | Slow inactivation V0.5 ([4]; mean ± SEM): −21.56 ± 3.23 mV | Fast inactivation, individual shifts ([4]; versus control (bath), mean ± SEM): −14.35 mV | time constant for entering the slow inactivated state [4]: not affected | IC50 [6]: 441 µM | GABA inward current stimulation, α2β2γ2, Mean ± SEM ([15]; 50 μmol/L): 97.9 ± 3.3 | GABA inward current stimulation, α2β2γ2, Mean ± SEM ([15]; 100 μmol/L): 111.4 ± 2.7 | GABA inward current stimulation, α2β2γ2, Mean ± SEM ([15]; 250 μmol/L): 109.0 ± 7.6 | GABA inward current stimulation, α2β2γ2, Mean ± SEM ([15]; 500 μmol/L): 103.6 ± 7.6 | GABA inward current stimulation, α2β2γ2, Mean ± SEM ([15]; 1000 μmol/L): 104.2 ± 2.7 | IC50 [16]: 452 µM | inhibition of firing of DGCs, control versus pilocarpine-treated rats [17]: significantly reduced in chronic experimental epilepsy

N[C@H](CCCP(=O)(O)O)C(=O)O [D-AP5, D-(−)-2-amino-5-phosphonopentanoic]
IC50 ([7]; read-out: IC50, NMDA receptor-mediated currents, submaximal currents, HEK cells GRIN1/GRIN2B): 7 µM

NS(=O)(=O)c1cccc2c1c([N+](=O)[O-])cc1nc(O)c(O)nc12 [NBQX, 2,3-Dioxo-6-nitro-1,2,3,4-tetrahydrobenzo[f]quinoxaline-7-sulfonamide]
IC50 [13]: 19 µM

CC(=O)O[C@H]1Cc2ccccc2N(C(N)=O)c2ccccc21 [ESL, (S)-10-acetoxy-10,11-dihydro-5H-dibenz/b,f/azepine-5-carboxamide]
protection against MES-induced seizures [18]: 97% | Racine stage 5 seizures (proconvulsant effects) ([9]; at 240 mg/kg): 22% ^* | Corneal kindling (antiepileptogenic models) [11]: 30 mg/kg | hippocampal extracellular glutamate levels ([19]; microdialysate): significantly reduced glutamate levels | acute and chronic latrunculin A-induced seizures and EEG chronic signs of paroxysmal activity ([19]; Swiss mice, previous to latrunculin A microperfusion): completely prevented

Cc1ncc2n1-c1ccc(Cl)cc1C(c1ccccc1F)=NC2 [midazolam]
increase of submaximal α1β2γ2 GABA currents ([12]; 3 μmol/L): ~80%
